Experimental data: publication PMC7179198, “Chiral Pyridine-3,5-bis- (L-phenylalaninyl-L-leucinyl) Schiff Base Peptides as Potential Anticancer Agents: Design, Synthesis, and Molecular Docking Studies Targeting Lactate Dehydrogenase-A” (Molecules, 2020)
Blank lines part the entries; values can stand above or below the molecule they belong to.

Experiments:
[1] = target: T1, recombinant human LDHA protein (Homo sapiens, UniProt P00338); assay: LDHA inhibition assay (colorimetric NADH kit); type: biochemical; conditions: recombinant human LDHA
T1 construct: purchased Abcam ab93699
Procedure: The newly synthesized compounds 4–6 were evaluated for their ability to inhibit LDHA in comparison with galloflavin as a known isoform nonselective LDHA inhibitor [44, 45]. The choice of galloflavin as a reference was based on the fact that it is potent anticancer agent and commercially available.
Lactate dehydrogenase assay kit (Abcam, ab102526) and recombinant human LDHA protein (Abcam, ab93699) were used to assess the inhibitory effect of the tested compounds. First, we generated an NADH standard curve for colorimetric detection by measuring the OD (450 nm) at different molar amounts of NADH. The linear regression equation of the curve was derivatized in Graphpad Prism. Tested compounds were dissolved in DMSO and their inhibitory activity was assessed at 140 and 300 μM strength. Galloflavin (Sigma, SML0776) at the same molar concentration was used as a known LDH inhibitor. The master reaction mix composed of LDH assay buffer and 10 ng human LDHA […] per reaction was prepared. Tested compounds were added and the final reaction volume was adjusted to 50 μL. Absorbance at 450 nm was taken after 2–3 min (T-initial) and continued every minute for 118 min (T-final). The change in measurement over time (delta A450) was calculated as T-final minus T-initial. The amount of NADH generated by the assay between T-initial and T-final was deduced by comparing the A450 of each sample to the standard NADH standard curve. LDHA activity was calculated in milliunits per mL as the amount of NADH generated by the assay / (reaction time in minutes (118) x reaction volume in mL ([…]).

p53 ubiquitination [2] = assay: In vivo p53 ubiquitination inhibition; conditions: for IC50: read-out: in vivo IC50, suppression of p53 ubiquitination
Source text: (§1) Several cancer prevention drugs depend mainly on the ubiquitination activities against p53 as a suppressor protein. When E3 ubiquitin protein ligase HDM2 binds to p53, the resulting mechanism is the inhibition of its ability as a transcription activator. Accordingly, the regulative mechanism is acting negatively. Therefore, blocking the p53 binding site on HDM2 provides for a better possible antitumorigenic molecule. Currently, murine double minute 2 (MDM2) is considered as the regulator of choice when it comes to investigatingp53 inhibition.
(§2) Different prepared derivatives 4–6 were evaluated for their inhibitory potential against p53 ubiquitination according to the previously reported procedure.

MCF-7 xenografts = assay: In vivo human breast cancer xenograft; set-up: species or system nude mice; conditions: MCF-7 xenograft, eight days of treatment
Source text: In this section, we developed a breast cancer animal xenograft model for the evaluation of thein vivo anticancer potential of our newly prepared compounds. […] After wards, the noticeable effects were more or less constant up to 14 days of treatment. […] Our results are in good agreement with those previously published on the in vivo anticancer potential of Schiff bases owing to apoptosis induction.
The breast cancer xenograft model protocol was approved by the Institutional Animal Use and Care Committee of the University of Alabama at Birmingham (50-01-05-08B). Female athymic pathogen-free nude mice (nu/nu, 4–6 weeks) were used. Firstly, MCF-7 xenografts were initiated by implanting pellets slowly releasing estrogen for two months (1.7mg 17β-estradiol/pellet) subcutaneously in the female nude mice. After 24 h, confluent MCF-7 cells were harvested, washed two times with serum-free medium, re-suspended, and injected subcutaneously (s.c.) (5 × 10^6 cells, total volume 0.2 mL) into the left inguinal area of the mice. Caliper measurement was used to measure tumor growth in two perpendicular diameters of the implant after 48 h, and its volume was determined. Mice grafted with MCF-7 were divided into different groups (7–10 mice/group). Untreated mice received the solvent only. Treated groups received different prepared derivatives as previously described.

p53 ubiquitination [3] = assay: In vitro p53 ubiquitination inhibition; type: biochemical; conditions: for IC50: read-out: in vitro IC50, suppression of p53 ubiquitination
Source text: as §1, §2

[4] = tested on: breast cancer cells (MCF-7); assay: In vitro cytotoxic activity against MCF-7 cancer cells (MTT); type: cell-based, human; conditions: for IC50: MCF-7, MTT
Source text: (§3) Following the synthesis of the new bis-dipeptide derivatives, we evaluated the anticancer potentials of these derivatives in vitro against breast cancer cells (MCF-7) as well as normal non tumorigenic MCF-10A cells. The obtained results were expressed as IC50 values in µM and were also compared for both cell lines with positive reference controls; that is cisplatin and milaplatin. Generally, it can be seen that our newly synthesized bis-dipeptides have potential anticancer activities against MCF-7 cells.
Human breast cancer (MCF-7) cells, obtained from Sigma-Aldrich Chemie GmbH, Taufkirchen, Germany, were propagated in RPMI-1640 supplemented with 10% heat inactivated FBS, 2 mM L-glutamine, and 1% standard antibiotic solution. Cells were incubated in a 5% CO2humidified incubator at 37 °C and passaged bi-weekly. The in vitro anti-proliferative activity of the newly synthesized derivatives was assayed using the standard MTT technique.
(§4) The results were expressed as IC50. Experiments were repeated at least in triplicate, to obtain good reproducibility between replicate wells with standard errors below 10%. Furthermore, the cytotoxic effects of the prepared derivatives were evaluated against normal nonmalignant cells, non-tumorigenic MCF-10A, in order to find out if the synthesized derivatives have toxicity against normal cells. Additionally, the results were compared with reference compounds (cisplatin and milaplatin) as positive controls.

[5] = tested on: non-tumorigenic MCF-10A cells; assay: Cytotoxicity against normal non-tumorigenic MCF-10A cells (MTT); type: cell-based; conditions: MCF-10A vs MCF-7
Source text: as §3
The fact that normal cells are usually less affected by possible anticancer candidates may be attributed to the fact that, upon cancer initiation and development, cancer cells overcome normal growth regulation pathways present in normal cells, and thusthey tend to be affected by other different regulatory growth pathways, which are not evident in the case of normal cells.
as §4

- melting point: 198 to 200 °C
Molecule: CC(C)CC(NC(=O)C(Cc1ccccc1)NC(=O)c1cncc(C(=O)NC(Cc2ccccc2)C(=O)NC(CC(C)C)C(=O)NN=C2CCCCC2)c1)C(=O)NN=C1CCCCC1 (centres unmarked) [3b, N^3,N^5-Bis{1-[(1-(2-cyclohexylidenehydrazinyl)-4-methyl-1-oxopentan-2-yl)amino]-1-oxo-3-phenylpropan-2-yl}pyridine-3,5-dicarboxamide]

- melting point: 242 to 244 °C
Molecule: CC(C)CC(NC(=O)C(Cc1ccccc1)NC(=O)c1cncc(C(=O)NC(Cc2ccccc2)C(=O)NC(CC(C)C)C(=O)NN=C2CCCCCCC2)c1)C(=O)NN=C1CCCCCCC1 (centres unmarked) [3d, N^3,N^5-Bis{1-[(1-(2-cyclooctylidenehydrazinyl)-4-methyl-1-oxopentan-2-yl)amino]-1-oxo-3-phenylpropan-2-yl}pyridine-3,5-dicarboxamide]

- melting point: 208 to 210 °C
Molecule: CC(=NNC(=O)C(CC(C)C)NC(=O)C(Cc1ccccc1)NC(=O)c1cncc(C(=O)NC(Cc2ccccc2)C(=O)NC(CC(C)C)C(=O)NN=C(C)c2cccnc2)c1)c1cccnc1 (centres unmarked) (hydrate or solvate) [4b, N^3,N^5-Bis{1-[(4-methyl-1-oxo-1-(2-(1-(pyridin-3-yl)ethylidene)hydrazinyl)pentan-2-yl)-amino]-1-oxo-3-phenylpropan-2-yl}pyridine-3,5-dicarboxamide]

- IC50 [1]: 161.1 ± 0.32 µM
Molecule: O=c1oc2c(cc1O)oc(=O)c1cc(O)c(O)c(O)c12 [galloflavin, reference compound]

- melting point: 232 to 234 °C
Molecule: CC(C)CC(NC(=O)C(Cc1ccccc1)NC(=O)c1cncc(C(=O)NC(Cc2ccccc2)C(=O)NC(CC(C)C)C(=O)NN=C2CCCC2)c1)C(=O)NN=C1CCCC1 (centres unmarked) [3a, N^3,N^5-Bis{1-[(1-(2-cyclopentylidenehydrazinyl)-4-methyl-1-oxopentan-2-yl]amino)-1-oxo-3-phenylpropan-2-yl}pyridine-3,5-dicarboxamide]

- melting point: 196 to 198 °C
Molecule: CC(=NNC(=O)C(CC(C)C)NC(=O)C(Cc1ccccc1)NC(=O)c1cncc(C(=O)NC(Cc2ccccc2)C(=O)NC(CC(C)C)C(=O)NN=C(C)c2ccncc2)c1)c1ccncc1 (centres unmarked) (hydrate or solvate) [4c, N^3,N^5-Bis{1-[(4-methyl-1-oxo-1-(2-(1-(pyridin-4-yl)ethylidene)hydrazinyl)pentan-2-yl)-amino]-1-oxo-3-phenylpropan-2-yl}pyridine-3,5-dicarboxamide]

- melting point: 221 to 223 °C
Molecule: CC(C)CC(NC(=O)C(Cc1ccccc1)NC(=O)c1cncc(C(=O)NC(Cc2ccccc2)C(=O)NC(CC(C)C)C(=O)NN=C2CCCCCC2)c1)C(=O)NN=C1CCCCCC1 (centres unmarked) [3c, N^3,N^5-Bis{1-[(1-(2-cycloheptylidenehydrazinyl)-4-methyl-1-oxopentan-2-yl)amino]-1-oxo-3-phenylpropan-2-yl}pyridine-3,5-dicarboxamide]

Molecule: CC(=NNC(=O)C(CC(C)C)NC(=O)C(Cc1ccccc1)NC(=O)c1cncc(C(=O)NC(Cc2ccccc2)C(=O)NC(CC(C)C)C(=O)NN=C(C)c2ccc([N+](=O)[O-])cc2)c1)c1ccc([N+](=O)[O-])cc1 (centres unmarked) (hydrate or solvate) [5e, N^3,N^5-Bis{1-[(4-methyl-1-(2-(1-(4-nitrophenyl)ethylidene)hydrazinyl)-1-oxopentan-2-yl)-amino]-1-oxo-3-phenylpropan-2-yl}pyridine-3,5-dicarboxamide]
- melting point: 256 to 258 °C

- IC50 (p53 ubiquitination [2]): 0.31 ± 0.001 µM
- melting point: 205 to 207 °C
Molecule: CC(C)CC(NC(=O)C(Cc1ccccc1)NC(=O)c1cncc(C(=O)NC(Cc2ccccc2)C(=O)NC(CC(C)C)C(=O)NN=Cc2ccco2)c1)C(=O)NN=Cc1ccco1 (centres unmarked) [6a, N^3,N^5-bis{1-[(1-(2-(furan-2-ylmethylene)hydrazinyl)-4-methyl-1-oxopentan-2-yl)amino]-1-oxo-3-phenylpropan-2-yl}pyridine-3,5-dicarboxamide]

- IC50 (p53 ubiquitination [2]): 0.12 ± 0.0011 µM
- IC50 (p53 ubiquitination [3]): 21.34 ± 0.13 µM
Molecule: CC(=NNC(=O)C(CC(C)C)NC(=O)C(Cc1ccccc1)NC(=O)c1cncc(C(=O)NC(Cc2ccccc2)C(=O)NC(CC(C)C)C(=O)NN=C(C)c2ccccn2)c1)c1ccccn1 (centres unmarked) [4a, N^3,N^5-Bis{1-[(4-methyl-1-oxo-1-(2-(1-(pyridin-2-yl)ethylidene)hydrazinyl)pentan-2-yl)amino]-1-oxo-3-phenylpropan-2-yl}pyridine-3,5-dicarboxamide]
- decrease in tumor growth (MCF-7 xenografts): 81.3%
- fold higher inhibitory effect than positive control (diphenyl imidazole), in vivo p53 ubiquitination (p53 ubiquitination [2]; in vivo, vs diphenyl imidazole): ~15.7 fold
- fold higher inhibitory effect than positive control (diphenyl imidazole), in vitro p53 ubiquitination (p53 ubiquitination [3]; vs diphenyl imidazole): about 12.2 fold

Molecule: CC(=NNC(=O)C(CC(C)C)NC(=O)C(Cc1ccccc1)NC(=O)c1cncc(C(=O)NC(Cc2ccccc2)C(=O)NC(CC(C)C)C(=O)NN=C(C)c2cccnc2)c1)c1cccnc1 (centres unmarked) [4b, N^3,N^5-Bis{1-[(4-methyl-1-oxo-1-(2-(1-(pyridin-3-yl)ethylidene)hydrazinyl)pentan-2-yl)-amino]-1-oxo-3-phenylpropan-2-yl}pyridine-3,5-dicarboxamide]
- IC50 ([4]; Homo sapiens, MCF7): 8.12 ± 0.14 µM
- more active than cisplatin against MCF-7 ([4]; MCF-7, vs cisplatin): about 39.1%
- more active than milaplatin against MCF-7 ([4]; MCF-7, vs milaplatin): ~55.9%
- fold higher IC50 against MCF-10A than MCF-7 [5]: about 142.7 fold

Molecule: N^3,N^5-Bis{1-[(1-(2-(1-(4-methoxyphenyl)ethylidene)hydrazinyl)-4-methyl-1-oxopentan-2-yl)-amino]-1-oxo-3-phenylpropan-2-yl}pyridine-3,5-dicarboxamide [5a]
- IC50 [4]: 17.6 ± 0.27 µM
- IC50 (p53 ubiquitination [3]): 44.33 ± 0.34 µM
- fold higher IC50 against MCF-10A than MCF-7 [5]: ~145.9 fold

- melting point: 216 to 218 °C
Molecule: CC(=NNC(=O)C(CC(C)C)NC(=O)C(Cc1ccccc1)NC(=O)c1cncc(C(=O)NC(Cc2ccccc2)C(=O)NC(CC(C)C)C(=O)NN=C(C)c2ccccn2)c1)c1ccccn1 (centres unmarked) (hydrate or solvate) [4a, N^3,N^5-Bis{1-[(4-methyl-1-oxo-1-(2-(1-(pyridin-2-yl)ethylidene)hydrazinyl)pentan-2-yl)amino]-1-oxo-3-phenylpropan-2-yl}pyridine-3,5-dicarboxamide]

Molecule: milaplatin [reference compound]
- IC50 [4]: 18.43 ± 0.13 µM

Molecule: N.N.[Cl][Pt][Cl] [cisplatin, reference compound]
- IC50 [4]: 13.34 ± 0.11 µM

- melting point: 218 to 220 °C
Molecule: CC(C)CC(NC(=O)C(Cc1ccccc1)NC(=O)c1cncc(C(=O)NC(Cc2ccccc2)C(=O)NC(CC(C)C)C(=O)NN=Cc2cccs2)c1)C(=O)NN=Cc1cccs1 (centres unmarked) [6b, N^3,N^5-bis{1-[(4-methyl-1-oxo-1-(2-(thiophen-2-ylmethylene)hydrazinyl)pentan-2-yl)amino]-1-oxo-3-phenylpropan-2-yl}pyridine-3,5-dicarboxamide]
